PMC9428149, “Tackling recalcitrant Pseudomonas aeruginosa infections in critical illness via anti-virulence monotherapy” (Nature Communications, 2022)
Where “and” joins values, the source holds several entries; their conditions need not be identical. Equal entries are not always repeated. Entries after “also recorded” stand apart in the source; their conditions may differ. Where two headings read alike, the source gives them in different places.

What was measured:
[1] = target: MvfR binding to the pqsA promoter (Pseudomonas aeruginosa, UniProt Q9I4X0); type: cell-based; details: for MvfR binding to the pqsA promoter (ChIP-qPCR): D88 +, Figure 5c, replicates
Hep G2 cells = test: MTT cytotoxicity, Hep G2; type: cell-based, human; details: for Cell viability (MTT) relative to Vehicle: Hep G2, replicates
Experimental: (§1) For the determination of cytotoxicity, cell viability was determined using the MTT (3-[4, 5-dimethyl-2-thiazolyl]−2, 5-diphenyl-2H-tetrazolium bromide) assay in the presence and absence of compound (D88). […] The cells were then treated with either vehicle or different concentrations of D88 (10, 20, 30, 40, and 50 µM) for 24 h at 37 °C and 5% CO2. After 24 h, the cells were washed three times with PBS and were incubated in 200 μL PBS containing 200 μg mL^−1 MTT (Sigma-Aldrich) in a 96-well culture plate for 2 h at 37 °C and 5% CO2. Following incubation, the supernatant was discarded, and the cells were lysed in 95% isopropanol and 5% formic acid.

Caco-2 cells = test: MTT cytotoxicity, Caco-2; type: cell-based, human; details: for Cell viability (MTT) relative to Vehicle: Caco-2, replicates
Experimental: as §1

RAW 264.7 cells = test: MTT cytotoxicity, RAW 264.7; type: cell-based, mouse; details: for Cell viability (MTT) relative to Vehicle: RAW 264.7, replicates
Experimental: as §1

[2] = DMPK of D88 in mice (plasma); type: in vivo, mouse; details: for half-life: read-out: half-life (T ½) (converted)
Experimental: Experiments were conducted by Aptuit (Verona) S.rl, an Evotec Company in Italy. Six weeks old male CD-1 mice were obtained from Charles River Laboratories, Italy. Mice were maintained on a 12 h light cycle with ad libitum access to rodent feed and water.
Healthy animals received IV 1.0 mg kg^−1 or SC administration of the 10.2 mg kg^−1 in homogeneous suspension in 0.5 % HPMC in water at the volume of 1.7 mL kg^−1. Following administration, blood samples were collected under deep isoflurane anesthesia from the cava vein of each mouse into tubes with K3EDTA, thoroughly but gently mixed, and placed on wet ice. Within 0.5 h of collection, blood was centrifuged (2500 g for 10 min at 4 °C) and within 0.5 h, aliquots of plasma were transferred into appropriately labeled sample tubes. A first 20 µL aliquot were mixed with 80 µL of Hepes 0.1 N. A second 5 µL aliquot of plasma was added to a well plate for urea quantification without dilution. Plasma samples were processed using a method based on protein precipitation with acetonitrile followed by HPLC/MS-MS analysis with an optimized analytical method.

PA14 burn-site infection [3] = test: In vivo intestinal permeability (FITC-dextran) in burn-site infection model; set-up: species or system mouse
PA14 burn-site infection [4] = test: Bacterial dissemination and load (CFU) in burn-site infection model; type: in vivo, mouse
[5] = tested on: MvfR-regulated small molecules at the site of infection; test: Production of HHQ, PQS, HQNO, 2-AA and DHQ in vivo; set-up: species or system mouse
Experimental: (§2) For the group supplemented with our MvfR-inhibiting compound (D88), mice received five subcutaneous injections (at the nape of the animals) at 1, 4, 8, 12, and 18 h post-BI, at a dose of 24 mg kg^−1 body weight. D88 was prepared in a 40% Captisol vehicle. Control groups received equivalent doses of 40% Captisol vehicle.
To measure the production of HHQ, PQS, HQNO, 2-AA, and DHQ in vivo, underlying muscle from the site of infection was collected at 12 h and 22 h post-infection, and the small molecules were extracted by homogenizing them immediately in 1 mL sterile PBS as above. A 500 μL of sample was mixed with an equal volume of methanol containing 10 ppm of HHQ-D4 and 20 ppm of PQS-D4, spun down for 5 min, and 700 μL of supernatant were put in glass vials. Liquid chromatography-mass spectrophotometry ([…]) analysis was performed as described above and in[66].

TNF-α = test: Ileal TNF-α ELISA; type: in vivo, mouse; details: burn + PA14 + D88, 22 h
Experimental: as §2
(§3) Distal ileal TNF-α and IL-6 were quantified using the mouse TNF-α enzyme-linked immunosorbent assay [ELISA] Ready-SET-Go kit (eBioscience; San Diego, CA, USA) and the Mouse IL-6 DuoSet ELISA (R&D Systems) respectively, as per the manufacturer’s instructions.

IL-6 = test: Ileal IL-6 ELISA; type: in vivo, mouse; details: burn + PA14 + D88, 22 h
Experimental: as §2, §3

[6] = male, CD-1, mouse, 1 mg/kg IV, plasma
[7] = male, CD-1, mouse, 10 mg/kg SC, plasma
[8] = D88 Treated 12h, site of infection, single mice, Figure 6d
[9] = D88 Treated 22h, site of infection, single mice, Figure 6d

Chain of MvfR binding to the pqsA promoter (Q9I4X0 whole entry, looked up): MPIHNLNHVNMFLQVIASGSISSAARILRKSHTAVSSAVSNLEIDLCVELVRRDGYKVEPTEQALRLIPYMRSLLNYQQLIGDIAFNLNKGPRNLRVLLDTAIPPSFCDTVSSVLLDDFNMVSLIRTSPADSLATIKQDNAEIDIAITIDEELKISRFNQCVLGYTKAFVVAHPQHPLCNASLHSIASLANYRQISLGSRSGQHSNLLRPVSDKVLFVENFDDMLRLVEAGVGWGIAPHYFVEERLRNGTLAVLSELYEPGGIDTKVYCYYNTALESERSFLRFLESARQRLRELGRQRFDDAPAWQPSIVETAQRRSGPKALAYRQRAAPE

N#Cc1ccc(NC(=O)C(F)C(=O)Nc2ccc(Oc3ccccc3)cc2)cc1 (stereo not shown) [D88]
reduction of MvfR binding to the pqs operon promoter ([1]; 50 µM D88, vs control): ~ 80% | PQS-mediated increase in MvfR binding ([1]; D88 50 µM + PQS 38 µM): significantly decreased | MvfR binding to the pqsA promoter (ChIP-qPCR) ([1]; PQS +): 4.271 and 2.782 and 2.485 | MvfR binding to the pqsA promoter (ChIP-qPCR) ([1]; PQS −): 1.532 and 0.7796 and 1.309 | cell viability (Hep G2 cells; Hep G2, 10-50 µM, 24 h): None of the used compound concentrations exerted any cytotoxic effect; also recorded: no significant changes in cell viability | Cell viability (MTT) relative to Vehicle (Hep G2 cells; 10 μM): 91.32 and 107.98 and 99.70 and 117.35 and 109.09 and 100.19 | Cell viability (MTT) relative to Vehicle (Hep G2 cells; 20 μM): 95.30 and 117.21 and 108.45 and 112.28 and 97.33 and 109.75 | Cell viability (MTT) relative to Vehicle (Hep G2 cells; 30 μM): 92.58 and 115.65 and 108.60 and 112.37 and 92.39 and 103.33 | Cell viability (MTT) relative to Vehicle (Hep G2 cells; 40 μM): 107.42 and 114.93 and 105.81 and 114.05 and 107.35 and 99.51 | Cell viability (MTT) relative to Vehicle (Hep G2 cells; 50 μM): 91.19 and 110.82 and 100.96 and 118.91 | cell viability (Caco-2 cells; Caco-2, 10-50 µM, 24 h): None of the used compound concentrations exerted any cytotoxic effect; also recorded: no significant changes in cell viability | Cell viability (MTT) relative to Vehicle (Caco-2 cells; 10 μM): 100.58 and 104.90 and 98.04 and 98.93 and 106.77 and 103.03 | Cell viability (MTT) relative to Vehicle (Caco-2 cells; 20 μM): 88.76 and 107.49 and 114.33 and 95.92 and 103.96 and 102.97 | Cell viability (MTT) relative to Vehicle (Caco-2 cells; 30 μM): 90.12 and 104.03 and 109.17 and 85.43 and 91.84 and 104.53 | Cell viability (MTT) relative to Vehicle (Caco-2 cells; 40 μM): 102.40 and 93.65 and 104.99 and 92.78 and 93.27 and 104.68 | Cell viability (MTT) relative to Vehicle (Caco-2 cells; 50 μM): 105.69 and 94.78 and 111.93 and 95.33 and 96.54 and 98.13 | cell viability (RAW 264.7 cells; RAW 264.7, 10-50 µM, 24 h): None of the used compound concentrations exerted any cytotoxic effect; also recorded: no significant changes in cell viability | Cell viability (MTT) relative to Vehicle (RAW 264.7 cells; 10 μM): 106.22 and 99.08 and 96.63 and 98.82 and 101.11 and 88.19 | Cell viability (MTT) relative to Vehicle (RAW 264.7 cells; 20 μM): 109.67 and 80.39 and 97.97 and 112.02 and 105.97 and 95.04 | Cell viability (MTT) relative to Vehicle (RAW 264.7 cells; 30 μM): 93.49 and 78.32 and 83.19 and 78.26 and 102.67 and 94.83 | Cell viability (MTT) relative to Vehicle (RAW 264.7 cells; 40 μM): 110.52 and 98.03 and 98.54 and 91.97 and 90.51 and 93.01 | Cell viability (MTT) relative to Vehicle (RAW 264.7 cells; 50 μM): 100.26 and 92.62 and 78.32 and 79.67 and 99.66 and 96.62 | Clast ([2]; 1 mg/kg IV, plasma): 14.2 ng/mL | Clast ([2]; 10 mg/kg SC, plasma): 66.6 ng/mL | Concentration ([2]; IV Injection 1mg/kg, Time 0.08 h, individual animals, 1 mg/kg): 648 ng/mL and 1150 ng/mL and 1460 ng/mL | Concentration ([2]; IV Injection 1mg/kg, Time 0.33 h, individual animals, 1 mg/kg): 210 ng/mL and 298 ng/mL and 486 ng/mL | Concentration ([2]; IV Injection 1mg/kg, Time 0.67 h, individual animals, 1 mg/kg): 77.1 ng/mL and 131 ng/mL | Concentration ([2]; IV Injection 1mg/kg, Time 1 h, individual animals, 1 mg/kg): 10.9 ng/mL and 25.8 ng/mL and 57.4 ng/mL | Concentration ([2]; SC Injection 10mg/kg, Time 0.08 h, individual animals, 10 mg/kg): 491 ng/mL and 600 ng/mL and 954 ng/mL and 1250 ng/mL | Concentration ([2]; SC Injection 10mg/kg, Time 0.33 h, individual animals, 10 mg/kg): 712 ng/mL and 1020 ng/mL and 1060 ng/mL and 1590 ng/mL | Concentration ([2]; SC Injection 10mg/kg, Time 0.67 h, individual animals, 10 mg/kg): 581 ng/mL and 875 ng/mL and 940 ng/mL and 1190 ng/mL | Concentration ([2]; SC Injection 10mg/kg, Time 1 h, individual animals, 10 mg/kg): 513 ng/mL and 854 ng/mL and 838 ng/mL and 1070 ng/mL | Concentration ([2]; SC Injection 10mg/kg, Time 2 h, individual animals, 10 mg/kg): 746 ng/mL and 683 ng/mL and 744 ng/mL | Concentration ([2]; SC Injection 10mg/kg, Time 3.8 h, individual animals, 10 mg/kg): 90.5 ng/mL and 323 ng/mL and 480 ng/mL and 304 ng/mL | Concentration ([2]; SC Injection 10mg/kg, Time 6 h, individual animals, 10 mg/kg): 21.9 ng/mL and 63.8 ng/mL and 101 ng/mL and 79.7 ng/mL | concentration at 0.67 h ([2]; male, CD-1, mouse, plasma, iv, 1 mg/kg, IV Injection 1mg/kg, Time 0.67 h, individual animals): 76.4 ng/mL | concentration at 2 h ([2]; male, CD-1, mouse, plasma, iv, 1 mg/kg, IV Injection 1mg/kg, Time 2 h, individual animals): 5.9 ng/mL | concentration at 2 h ([2]; male, CD-1, mouse, plasma, sc, 10 mg/kg, SC Injection 10mg/kg, Time 2 h, individual animals): 443 ng/mL | Cmax [2, 6]: 1090 ng/mL | Tmax [2, 6]: 4.8 min | half-life [2, 6]: 16.2 min | Cmax [2, 7]: 1100 ng/mL | Tmax [2, 7]: 19.8 min | half-life [2, 7]: 75 min | mean FITC-dextran in serum (PA14 burn-site infection [3]; burn + PA14 infection, D88 24 mg kg^−1 SC x5, 22 h): 2759 ng/mL | mean FITC-dextran in serum (PA14 burn-site infection [3]; burn alone without infection, D88-treated, 22 h): 850 ng/mL | intestinal permeability status (PA14 burn-site infection [3]; mvfR mutant-infected mice treated with D88 vs no treatment or vehicle): no difference in the intestinal permeability status | bacterial dissemination to the intestinal tissues (ileum and colon) (PA14 burn-site infection [4]; burn + PA14, D88, 22 h): significantly reduced | bacterial load at the inoculation site (PA14 burn-site infection [4]; burn + infection, D88, 22 h): not affected | bacterial load at the site of infection (CFUs) (PA14 burn-site infection [4]; infected and D88 treated animals): ~1 × 10^8 | levels of HHQ, PQS, HQNO, 2-AA and DHQ at the site of infection ([5]; 12 h post-infection): strong inhibitory efficacy | levels of HHQ, PQS, HQNO, 2-AA and DHQ at the site of infection ([5]; 22 h post-infection): complete abolishment | DHQ [5, 8]: 0.0000 | HQNO [5, 8]: 0.0000 | 2-AA [5, 9]: 0.0000 | DHQ [5, 9]: 0.0000 | mean ileal TNF-α level (TNF-α): 381 pg mL^−1 g^−1 tissue | ileal IL-6 level (IL-6): marked decrease
